Laboratory results reported in patent US20260083704A1, “LXR MODULATORS WITH BICYCLIC CORE MOIETY FOR TREATING DYSLIPIDEMIAS” (OrsoBio, Inc., priority 2022, published 2026).

What was measured:
[1] = system: LXR target genes (Scd1, Fas, Srebp1) in liver; assay: Short term HFD mouse model: gene expression in liver tissue; assay type: in vivo; settings: HFD mice, expression normalized to Tbp; for response vs control in vivo at 20 mg/kg / response vs control in vivo at 10 mg/kg: Mus musculus, 4 h, read-out: Scd1 suppresion compared to vehicle
Experimental: (§1) The in vivo transcriptional regulation of several LXR target genes by LXR modulators was assessed in mice.
(§2) For this, C57BL/6J were purchased from Elevage Janvier (Rennes, France) at the age of 8 weeks. After an acclimation period of two weeks, animals were prefed on a high fat diet (HFD) (Ssniff Spezialdiäten GmbH, Germany, Surwit EF D12330 mod, Cat. No. E15771-34), with 60 kcal % from fat plus 1% (w/w) extra cholesterol (Sigma-Aldrich, St. Louis, MO) for 5 days. Animals were maintained on this diet during treatment with LXR modulators. The test compounds were formulated in 0.5% hydroxypropylmethylcellulose (HPMC) and administered in three doses (from 1.5 to 20 mg/kg each) by oral gavage according to the following schedule: on day one, animals received treatment in the morning and the evening (ca. 17:00), on day two animals received the final treatment in the morning after a 4 h fast and were sacrificed 4 h thereafter. Animal work was conducted according to the national guidelines for animal care in Germany.
Analysis of gene expression in liver tissue. To obtain total RNA from frozen liver tissue, samples (25 mg liver tissue) were first homogenized with RLA buffer (4M guanidin thiocyanate, 10 mM Tris, 0.97% w:v β-mercapto-ethanol). RNA was prepared using a SV 96 total RNA Isolation system (Promega, Madison, Wisconsin, USA) following the manufacturer's instructions. cDNAs were synthesized from 0.8-1 μg of total RNA using All-in-One cDNA Supermix reverse transcriptase (Absource Diagnostics, Munich, Germany). Quantitative PCR was performed and analyzed using Prime time Gene expression master mix (Integrated DNA Technologies, Coralville, Iowa, USA) and a 384-format ABI 7900HT Sequence Detection System (Applied Biosystems, Foster City, USA). The expression of the following genes was analysed: Stearoyl-CoA desaturase1 (Scd1), fatty acid synthase (Fas) and sterol regulatory element-binding protein1 (Srebp1). Specific primer and probe sequences (commercially available) are listed in Table 3. qPCR was conducted at 95° C. for 3 min, followed by 40 cycles of 95° C. for 15 s and 60° C. for 30 s. All samples were run in duplicates from the same RT-reaction. Gene expression was expressed in arbitrary units and normalized relative to the mRNA of the housekeeping gene TATA box binding protein (Tbp) using the comparative Ct method.

[2] = Short term HFD mouse model: plasma and liver exposure; assay type: in vivo; settings: HFD mice, 4 h after final dose
Experimental: as §1, §2
Upon termination, liver was collected, dipped in ice cold PBS for 30 seconds and cut into appropriate pieces. Pieces were snap frozen in liquid nitrogen and stored at −80° C. For the clinical chemistry analysis from plasma, alanine aminotransferase (ALT, IU/mL), cholesterol (CHOL, mg/dL) and triglycerides (TG, mg/dL) were determined using a fully-automated bench top analyzer (Respons®910, DiaSys Greiner GmbH, Flacht, Germany) with system kits provided by the manufacturer.

[3] = three oral doses of 20 mg/kg over two days
[4] = three oral doses of 10 mg/kg over two days

SMILES	Srebp1c suppr. compared to vehicle ([1]; three oral doses of 20 mg/kg)	response vs control in vivo at 20 mg/kg ([1]; three oral doses of 20 mg/kg) [%]	liver exposure 4 h [2, 3]	liver/plasma ratio 4 h [2, 3]	plasma exposure 4 h [2, 3]	Srebp1c suppr. compared to vehicle ([1]; three oral doses of 10 mg/kg)	response vs control in vivo at 10 mg/kg ([1]; three oral doses of 10 mg/kg) [%]	liver exposure 4 h [2, 4]	liver/plasma ratio 4 h [2, 4]	plasma exposure 4 h [2, 4]	Fasn suppression compared to vehicle ([1]; three oral doses of 20 mg/kg)	Fasn suppression compared to vehicle ([1]; three oral doses of 10 mg/kg)
Cc1ccc(S(=O)(=O)n2c(-c3cccc(-c4ccc(C(=O)O)cc4Cl)c3)c(-c3ccsc3C#N)c3cc(F)ccc32)cc1 [3/48]	D (<0.3)	< 30	C (1 μM to ≤10 μM)	C (30 to ≤100)	D (<100 nM)							
N#Cc1cccc(C#N)c1-c1c(-c2cccc(-c3c(F)cc(C(=O)O)cc3F)c2)n(S(=O)(=O)c2ccc(C(F)F)cc2)c2ccc(F)cc12 [11/53]						D (<0.3)	< 30	C (1 μM to ≤10 μM)	C (30 to ≤100)	D (<100 nM)		
N#Cc1cccc(C#N)c1-c1c(-c2cccc(-c3ccc(C(=O)O)cc3Cl)c2)n(S(=O)(=O)c2ccc(C(F)F)cc2)c2ccc(F)cc12 [11/12]		< 30	C (1 μM to ≤10 μM)	C (30 to ≤100)	D (<100 nM)						C (0.3 to ≤0.6)	
N#Cc1nccnc1-c1c(-c2cccc(-c3cc(F)c(C(=O)O)cc3Cl)c2)n(S(=O)(=O)c2ccc(C(F)F)cc2)c2ccc(F)cc12 [11/11]		< 30	D (>10 μM)	D (>100)	D (<100 nM)						C (0.3 to ≤0.6)	
N#Cc1ccccc1-c1c(-c2cccc(-c3ccc(C(=O)O)cc3Cl)c2)n(S(=O)(=O)c2ccc(C(F)F)cc2)c2ccc(F)cc12 [11/33]		< 30	C (1 μM to ≤10 μM)	C (30 to ≤100)	C (100 nM to <300 nM)						B (0.6 to ≤0.9)	
N#Cc1cccnc1-c1c(-c2cccc(-c3ccc(C(=O)O)cc3Cl)c2)n(S(=O)(=O)c2ccc(C(F)F)cc2)c2ccc(F)cc12 [11/26]						D (<0.3)	30 to 60	C (1 μM to ≤10 μM)	C (30 to ≤100)	C (100 nM to <300 nM)		D (<0.3)
N#Cc1cccc(C#N)c1-c1c(-c2cccc([C@H]3CC[C@H](C(=O)O)CC3)c2)n(S(=O)(=O)c2ccc(C(F)F)cc2)c2ccc(F)cc12 [11/62]						D (<0.3)	< 30	C (1 μM to ≤10 μM)	B (5 to ≤30)	C (100 nM to <300 nM)		
O=C(O)c1ccc(-c2cccc(-c3c(-c4c(Cl)cccc4Cl)c4cc(F)ccc4n3S(=O)(=O)c3ccc(C(F)F)cc3)c2)c(Cl)c1 [11/13]		< 30	C (1 μM to ≤10 μM)	A (<5)	A (>1 μM)						C (0.3 to ≤0.6)	
O=C(O)c1ccc(-c2cccc(-c3c(-c4ncccc4C(F)(F)F)c4cc(F)ccc4n3S(=O)(=O)c3ccc(C(F)F)cc3)c2)c(Cl)c1 [11/23]		< 30	C (1 μM to ≤10 μM)	B (5 to ≤30)	C (100 nM to <300 nM)						C (0.3 to ≤0.6)	
N#Cc1cccc(C#N)c1-c1c(-c2cccc(-c3ccc(C(=O)NCC(=O)O)cc3Cl)c2)n(S(=O)(=O)c2ccc(C(F)F)cc2)c2ccc(F)cc12 [Compound 21/3]							< 30	C (1 μM to ≤10 μM)	D (>100)	D (<100 nM)		C (0.3 to ≤0.6)
N#Cc1cccc(C#N)c1-c1c(-c2cccc(-c3cc(F)c(C(=O)O)cc3Cl)c2)n(S(=O)(=O)c2ccc(C(F)F)cc2)c2ccc(F)cc12 [11/65]						D (<0.3)	< 30	C (1 μM to ≤10 μM)	C (30 to ≤100)	D (<100 nM)		
N#Cc1sccc1-c1c(-c2cccc(-c3ccc(C(=O)O)cc3Cl)c2)n(S(=O)(=O)c2ccc(C(F)F)cc2)c2ccc(F)cc12 [11/17]		< 30	D (>10 μM)	C (30 to ≤100)	C (100 nM to <300 nM)						C (0.3 to ≤0.6)	
N#Cc1cccc(C#N)c1-c1c(-c2cccc(-c3ccc(C(=O)NCCS(=O)(=O)O)cc3Cl)c2)n(S(=O)(=O)c2ccc(C(F)F)cc2)c2ccc(F)cc12 [10/1]						D (<0.3)	< 30	B (300 nM to ≤1 μM)	C (30 to ≤100)	D (<100 nM)		
CS(=O)(=O)NC(=O)c1ccc(-c2cccc(-c3c(-c4c(C#N)cccc4C#N)c4cc(F)ccc4n3S(=O)(=O)c3ccc(C(F)F)cc3)c2)c(Cl)c1 [32/5]						C (0.3 to ≤0.6)	30 to 60	B (300 nM to ≤1 μM)	B (5 to ≤30)	D (<100 nM)		
N#Cc1cccc(C#N)c1-c1c(-c2cccc(-c3c(F)cc(CC(=O)O)cc3F)c2)n(S(=O)(=O)c2ccc(C(F)F)cc2)c2ccc(F)cc12 [3/73]							< 30	B (300 nM to ≤1 μM)	C (30 to ≤100)	D (<100 nM)		A (>0.9)
Cc1ccc(S(=O)(=O)n2c(-c3cccc(C45CCC(C(=O)O)(CC4)CC5)c3)c(-c3ccsc3C#N)c3cc(F)ccc32)cc1 [3/64]	B (0.6 to ≤0.9)	< 30	D (>10 μM)	D (>100)	C (100 nM to <300 nM)						B (0.6 to ≤0.9)	
Cc1ccc(S(=O)(=O)n2c(-c3cccc(-c4ccc(C(=O)O)cc4)c3)c(-c3ccsc3C#N)c3cc(F)ccc32)cc1C [23/2]		< 30	A (<300 nM)	A (<5)	C (100 nM to <300 nM)						C (0.3 to ≤0.6)	
Cc1ccc(S(=O)(=O)n2c(-c3cccc(-c4ccc(C(=O)O)cc4)c3)c(-c3ccsc3C#N)c3cc(F)ccc32)cc1 [5/3]		30 to 60	C (1 μM to ≤10 μM)	B (5 to ≤30)	D (<100 nM)						D (<0.3)	
